EP2975030B1, “DIHYDROPYRIDAZINE-3,5-DIONE DERIVATIVE” (Chugai Seiyaku Kabushiki Kaisha, priority 2013, dated 2014)

Test system: rat small-intestinal brush border membrane vesicles
Test: Inhibitory effect on 33PO4 uptake into rat small-intestinal brush border membrane vesicles (rapid filtration method)
Type: biochemical, Wistar female rat
Conditions: 1 µM test compound; 33PO4 uptake into rat small-intestinal BBMVs, 60 seconds
Procedure, shortened: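 Uptake was terminated by ice-cold 110 mM NaCl, 1 mM KH2PO4, 10 mM HEPES (pH 7.5) buffer and immediate suction filtration, then washing. Using rat small-intestinal BBMVs, retained 33PO4 was quantified by liquid scintillation counting as transport activity.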

C[C@]12CCCN1N(Cc1cccc(C#N)c1)C(=O)C(C(=O)Nc1ccc(C(F)(F)F)cc1-c1cc(C(F)(F)F)ncn1)=C2O [Example 179]
Rate of uptake inhibition (%) (1 µM): 83%

COC(=O)CN(C)CCOc1ccc(CN2C(=O)C(C(=O)Nc3ccc(C(F)(F)F)cc3-c3cc(C(F)(F)F)ncn3)=C(O)C3(CCC3)N2C)c(F)c1F [Example 346]
Rate of uptake inhibition (%) (1 µM): 42%

CN1N(Cc2ccc(OCCCCCOC[C@H](O)CO)c(F)c2F)C(=O)C(C(=O)Nc2ccc(C(F)(F)F)cc2-c2cc(C(F)(F)F)ncn2)=C(O)C12CCC2 [Example 391]
Rate of uptake inhibition (%) (1 µM): 42%

CN1N(Cc2ccc(OCCCOC[C@H](O)CO)c(F)c2F)C(=O)C(C(=O)Nc2ccc(C(F)(F)F)cc2-c2ccc(C(F)(F)F)nc2)=C(O)C12CCCC2 [Example 386]
Rate of uptake inhibition (%) (1 µM): 36%

CC(C)[C@@H]1C(O)=C(C(=O)Nc2ccc(Cl)cc2-c2cc(C(F)(F)F)ncn2)C(=O)N(Cc2cccc(F)c2F)N1C [Example 250]
Rate of uptake inhibition (%) (1 µM): 52%

COCCOc1cc(NC(=O)C2=C(O)C3(CCCC3)N(C)N(Cc3ccc(OCCN(C)CCOC)c(F)c3F)C2=O)c(-c2ncnc(C(F)(F)F)c2C)cc1C(F)(F)F [Example 439, 7-[[2,3-Difluoro-4-[2-[2-methoxyethyl(methyl)amino]ethoxy]phenyl]methyl]-10-hydroxy-N-[5-(2-methoxyethoxy)-2-[5-methyl-6-(trifluoromethyl)pyrimidin-4-yl]-4-(trifluoromethyl)phenyl]-6-methyl-8-oxo-6,7-diazaspiro[4.5]dec-9-ene-9-carboxamide]
Rate of uptake inhibition (%) (1 µM): 35%

C[C@]12CCCN1N(Cc1ccccc1F)C(=O)C(C(=O)Nc1ccc(C(F)(F)F)cc1-c1ccc(C(F)(F)F)nc1)=C2O [Example 200]
Rate of uptake inhibition (%) (1 µM): 80%

CN1N(Cc2cccc(F)c2F)C(=O)C(C(=O)Nc2ccc(C(F)(F)F)cc2-c2cc(C(F)(F)F)ncn2)=C(O)C12CCCC2 [Example 260]
Rate of uptake inhibition (%) (1 µM): 70%

CCCN(CCN(C)CCOC)c1ccc(CN2C(=O)C(C(=O)Nc3ccc(C(F)(F)F)cc3-c3cc(C(F)(F)F)ncn3)=C(O)C3(CCCC3)N2C)c(F)c1F [Example 444]
Rate of uptake inhibition (%) (1 µM): 24%

CN1N(Cc2ccc(OC3COC3)c(F)c2F)C(=O)C(C(=O)Nc2ccc(C(F)(F)F)cc2-c2cc(C(F)(F)F)ncn2)=C(O)C12CCC2 [Example 403, 6-(2,3-Difluoro-4-(oxetan-3-yloxy)benzyl)-9-hydroxy-5-methyl-7-oxo-N-(4-(trifluoromethyl)-2-(6-(trifluoromethyl)pyrimidin-4-yl)phenyl)-5,6-diazaspiro[3.5]non-8-ene-8-carboxamide]
Rate of uptake inhibition (%) (1 µM): 71%

C[C@]12CCCN1N(Cc1ccc(OCCN3CCOCC3)c(Cl)c1)C(=O)C(C(=O)Nc1ccc(C(F)(F)F)cc1-c1ccc(C(F)(F)F)nc1)=C2O [Example 149, (4aR)-1-[[3-Chloro-4-(2-morpholin-4-ylethoxy)phenyl]methyl]-4-hydroxy-4a-methyl-2-oxo-N-[4-(trifluoromethyl)-2-[6-(trifluoromethyl)pyridin-3-yl]phenyl]-6,7-dihydro-5H-pyrrolo[1,2-b]pyridazine-3-carboxamide]
Rate of uptake inhibition (%) (1 µM): 80%

COc1cccc(-c2cc(C(F)(F)F)ccc2NC(=O)C2=C(O)[C@@]3(C)CCCN3N(Cc3ccc(C#CCOCCOCCO)c(F)c3F)C2=O)c1OC [Example 139]
Rate of uptake inhibition (%) (1 µM): 88%

C[C@]12CCCN1N(Cc1cccc(Cl)c1F)C(=O)C(C(=O)Nc1ccc(C(F)(F)F)cc1-c1ccc(C(F)(F)F)nc1)=C2O [Example 198]
Rate of uptake inhibition (%) (1 µM): 75%

C[C@]12CCCN1N(Cc1cccc(Cl)c1)C(=O)C(C(=O)Nc1ccc(C(F)(F)F)cc1-c1ccc(C(F)(F)F)nc1)=C2O [Example 169]
Rate of uptake inhibition (%) (1 µM): 73%

CN1N(Cc2cccc(F)c2F)C(=O)C(C(=O)Nc2cc(C(F)(F)F)ccc2-c2ccc(C(F)(F)F)nc2)=C(O)C1(C)C [Example 307]
Rate of uptake inhibition (%) (1 µM): 41%

(4aR)-1-[(3-Fluorophenyl)methyl]4-hydroxy-N-[5-methyl-2-(trifluoromethyl)furan-3-yl]-2-oxo-4a-propyl-6,7-dihydro-5H-pyrrolo[1,2-b]pyridazine-3-carboxamide [Example 11]
Rate of uptake inhibition (%) (1 µM): 22%

CN1N(Cc2cccc(F)c2F)C(=O)C(C(=O)Nc2ccc(Cl)cc2-c2ccc(C(F)(F)F)nc2)=C(O)C12CCC2 [Example 256]
Rate of uptake inhibition (%) (1 µM): 79%

Cc1c(C#N)ncnc1-c1cc(Cl)ccc1NC(=O)C1=C(O)[C@H](C(C)(C)C)N(C)N(Cc2ccc(OCCN3CCOCC3)c(F)c2F)C1=O [Example 274]
Rate of uptake inhibition (%) (1 µM): 43%

Cc1cccc(CN2C(=O)C(C(=O)Nc3ccc(C(F)(F)F)cc3-c3ccc(C(F)(F)F)nc3)=C(O)[C@@]3(C)CCCN23)c1F [Example 205]
Rate of uptake inhibition (%) (1 µM): 86%

C[C@]12CCCN1N(Cc1cccc(C#N)c1)C(=O)C(C(=O)Nc1cc(F)c(Br)c(F)c1)=C2O [Example 220]
Rate of uptake inhibition (%) (1 µM): 96%

C[C@]12CCCN1N(Cc1c(F)cc(OCCCCCCOC[C@H](O)CO)cc1F)C(=O)C(C(=O)Nc1ccc(C(F)(F)F)cc1-c1ccc(C(F)(F)F)nc1)=C2O [Example 155]
Rate of uptake inhibition (%) (1 µM): 77%

COc1cccc(-c2cc(C(F)(F)F)ccc2NC(=O)C2=C(O)[C@@]3(C)CCCN3N(Cc3ccc(C#CCOCCO)c(F)c3F)C2=O)c1OC [Example 137]
Rate of uptake inhibition (%) (1 µM): 92%

C[C@]12CCCN1N(Cc1ccc(CCCOCCCO)c(F)c1F)C(=O)C(C(=O)Nc1ccc(C(F)(F)F)cc1-c1ccc(C(F)(F)F)nc1)=C2O [Example 141]
Rate of uptake inhibition (%) (1 µM): 83%

COCCN1CCN(CCOc2ccc(CN3C(=O)C(C(=O)Nc4ccc(C(F)(F)F)cc4-c4cc(C(F)(F)F)ncn4)=C(O)C4(CCCC4)N3C)c(F)c2F)CC1 [Example 377]
Rate of uptake inhibition (%) (1 µM): 29%

C[C@]12CCCN1N(Cc1cccc(F)c1Cl)C(=O)C(C(=O)Nc1ccc(C(F)(F)F)cc1-c1ccc(C(F)(F)F)nc1)=C2O [Example 201]
Rate of uptake inhibition (%) (1 µM): 77%

COc1cccc(-c2cc(C(F)(F)F)ccc2NC(=O)C2=C(O)[C@@]3(C)CCCN3N(Cc3ccc(C#CCCCO)c(F)c3F)C2=O)c1OC [Example 138]
Rate of uptake inhibition (%) (1 µM): 93%

C[C@]12CCCN1N(Cc1ccc(F)c(F)c1)C(=O)C(C(=O)Nc1ccc(C(F)(F)F)cc1-c1ccc(C(F)(F)F)nc1)=C2O [Example 170]
Rate of uptake inhibition (%) (1 µM): 73%

CN1N(Cc2ccc(OCCCCCOC[C@H](O)CO)c(F)c2F)C(=O)C(C(=O)Nc2ccc(C(F)(F)F)cc2-c2cc(C(F)(F)F)ncn2)=C(O)C12CCCC2 [Example 394]
Rate of uptake inhibition (%) (1 µM): 45%

(4aR)-4a-Ethyl-1-[(3-fluorophenyl)methyl]-4-hydroxy-N-[5-methyl-2-(trifluoromethyl)furan-3-yl]-2-oxo-6,7-dihydro-5H-pyrrolo[1,2-b]pyridazine-3-carboxamide [Example 9]
Rate of uptake inhibition (%) (1 µM): 63%

CCOc1cccc(-c2cc(C(F)(F)F)ccc2NC(=O)C2=C(O)[C@@]3(C)CCCN3N(Cc3cccc(F)c3F)C2=O)c1OC [Example 66]
Rate of uptake inhibition (%) (1 µM): 96%

C[C@]12CCCN1N(Cc1ccc(F)c(Br)c1)C(=O)C(C(=O)Nc1ccc(C(F)(F)F)cc1-c1cc(C(F)(F)F)ncn1)=C2O [Example 184]
Rate of uptake inhibition (%) (1 µM): 79%

COc1cccc(-c2cc(C(F)(F)F)ccc2NC(=O)C2=C(O)[C@@]3(C)CCCN3N(Cc3cccc(F)c3F)C2=O)n1 [Example 93]
Rate of uptake inhibition (%) (1 µM): 56%

CN1N(Cc2ccc(OCCN3CCN(CCCO)CC3)c(F)c2F)C(=O)C(C(=O)Nc2ccc(C(F)(F)F)cc2-c2cc(C(F)(F)F)ncn2)=C(O)C12CCC2 [Example 362]
Rate of uptake inhibition (%) (1 µM): 17%

CN1N(Cc2ccc(OCCN3[C@@H]4COC[C@H]3C4)c(F)c2F)C(=O)C(C(=O)Nc2ccc(C(F)(F)F)cc2-c2cc(C(F)(F)F)ncn2)=C(O)C12CCC2 [Example 339]
Rate of uptake inhibition (%) (1 µM): 66%

CN1N(Cc2ccc(OCCCCCCC(=O)O)c(F)c2F)C(=O)C(C(=O)Nc2ccc(C(F)(F)F)cc2-c2cc(C(F)(F)F)ncn2)=C(O)C12CCCC2 [Example 335]
Rate of uptake inhibition (%) (1 µM): 30%

C[C@]12CCCN1N(Cc1ccc(CCCCCCC(=O)O)c(F)c1F)C(=O)C(C(=O)Nc1ccc(Cl)cc1-c1ccc(C(F)(F)F)nc1)=C2O [Example 116, 7-[4-[[(4aR)-3-[[4-Chloro-2-[6-(trifluoromethyl)pyridin-3-yl]phenyl]carbamoyl]-4-hydroxy-4a-methyl-2-oxo-6,7-dihydro-5H-pyrrolo[1,2-b]pyridazin-1-yl]methyl]-2,3-difluorophenyl]heptanoate]
Rate of uptake inhibition (%) (1 µM): 72%

COCCN1CCC[C@H]1COc1ccc(CN2C(=O)C(C(=O)Nc3ccc(C(F)(F)F)cc3-c3cc(C(F)(F)F)ncn3)=C(O)C3(CCC3)N2C)c(F)c1F [Example 404, 6-[[2,3-Difluoro-4-[[(2S)-1-(2-methoxyethyl)pirrolidin-2-yl]methoxy]phenyl]methyl]-9-hydroxy-5-methyl-7-oxo-N-[4-(trifluoromethyl)-2-[6-(trifluoromethyl)pyrimidin-4-yl]phenyl]-5,6-diazaspiro[3.5]non-8-ene-8-carboxamide]
Rate of uptake inhibition (%) (1 µM): 43%

C[C@]12CCCN1N(Cc1cccc(OC(F)F)c1)C(=O)C(C(=O)Nc1ccc(C(F)(F)F)cc1-c1ccc(C(F)(F)F)nc1)=C2O [Example 167]
Rate of uptake inhibition (%) (1 µM): 73%

C[C@]12CCCN1N(Cc1ccc(F)c(F)c1)C(=O)C(C(=O)Nc1cc(F)c(Br)c(F)c1)=C2O [Example 191]
Rate of uptake inhibition (%) (1 µM): 87%

CN1[C@@H](C(C)(C)C)C(O)=C(C(=O)Nc2ccc(Cl)cc2-c2cc(C(F)(F)F)ncn2)C(=O)N1Cc1cccc(F)c1F [Example 237]
Rate of uptake inhibition (%) (1 µM): 51%
